Measured values reported in paper PMC11220592 (Chemical Science, 2024).
“Also recorded” adds a separate entry of the source. Counter-ions that a name gives are not always drawn.

Tests used:
SARS-CoV-2 Omicron BA.5 = test: Viral load reduction assay; assay type: cell-based; details: Fig. S7
VeroE6 cells = test: Cellular bismuth uptake; assay type: cell-based, African green monkey; details: 24 hours, ICP-MS
SARS-CoV-2 = details: read-out: EC50 (antiviral activity); previously reported; cited from earlier work

Row | Structure (SMILES) | antiviral activity in virus-infected cells (SARS-CoV-2 Omicron BA.5) | cellular uptake of Bi(III) (VeroE6 cells) | EC50 (SARS-CoV-2) [nM]
1 | Nc1ccc([O-])c(=O)cc1.Nc1ccc([O-])c(=O)cc1.Nc1ccc([O-])c(=O)cc1.[Bi+3] [Bi(Tro-NH2)3, Bi(5-aminotropolonate)3] | did not show antiviral activity as good as that at the enzyme level; also recorded: did not show potent antiviral activity in virus-infected cells | poor cellular uptake of Bi(III) | –
2 | CNC(=C[N+](=O)[O-])NCCSCc1ccc(CN(C)C)o1 [RBC, ranitidine bismuth citrate] | – | – | 2300
